Measurements published in ChEMBL document CHEMBL1201862, “PubChem BioAssay data set” (2004).
Activity calls are given as the source filed them.

How the values were obtained:
[1] = Luminescence Cell-Based Dose Confirmation to Identify Activators of 5'UTR Stem-Loop Driven Alpha-Synuclein mRNA Translation in H4 Neuroglioblastoma Cells. [Related pubchem assays: 1829 (Project Summary), 1814 (Primary HTS)]; type: functional
[2] = Luminescence Cell-Based Dose Response to Identify Activators of 5'UTR Stem-Loop Driven Prion Protein mRNA Translation in H4-C Neuroglioblastoma Cells. [Related pubchem assays: 1829 (Project Summary), 1814 (Primary HTS)]; type: functional
[3] = Luminescence Cell-Based Dose Response HTS to Identify Activators of Luciferase Translation or Activity in H4 […] Cells. [Related pubchem assays: 1829 (Project Summary), 1814 (Primary HTS)]; type: functional
[4] = Luminescence Cell-Based Dose Confirmation HTS to Identify Activators of 5'UTR Stem-Loop Driven Alpha-Synuclein mRNA Translation in H4 Neuroglioblastoma Cells. [Related pubchem assays: 1829 (Project Summary), 1814 (Primary HTS)]; type: functional
[5] = Luminescence Cell-Based Dose Response to Identify Activators of Luciferase Translation or Activity in H4-C Neuroglioblastoma Cells. [Related pubchem assays: 1829 (Project Summary), 1814 (Primary HTS)]; type: functional
[6] = target: T1, Oxysterols receptor LXR-beta (Homo sapiens, UniProt P55055); type: functional, cell-based;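 further: Cell-based luminescence dose-response assay of agonist activity at LXR, run as a confirmatory counterscreen to a daf-12 agonist screen; HEK293 cells with Gal4-LXR fusion and GAL4-driven luciferase reporter; agonist potency from rising luciferase signal of a Gal4-LXR reporter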
T1 sequence (P55055 whole entry): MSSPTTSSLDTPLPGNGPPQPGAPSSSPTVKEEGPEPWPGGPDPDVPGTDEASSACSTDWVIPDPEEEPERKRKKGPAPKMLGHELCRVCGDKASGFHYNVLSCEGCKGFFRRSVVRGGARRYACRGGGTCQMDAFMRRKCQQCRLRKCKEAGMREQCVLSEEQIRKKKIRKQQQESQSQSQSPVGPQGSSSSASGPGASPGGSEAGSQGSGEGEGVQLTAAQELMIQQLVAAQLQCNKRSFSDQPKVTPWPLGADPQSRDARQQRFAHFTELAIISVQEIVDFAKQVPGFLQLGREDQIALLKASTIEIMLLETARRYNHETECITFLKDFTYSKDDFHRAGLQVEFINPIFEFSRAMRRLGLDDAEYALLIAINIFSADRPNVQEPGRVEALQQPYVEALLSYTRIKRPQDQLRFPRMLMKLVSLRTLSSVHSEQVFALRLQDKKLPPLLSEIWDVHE

[7] = M. tuberculosis H37Rv growth inhibitors, H37Rv strain (AID 1626); type: functional
[8] = target: T2, Rac GTPase-activating protein 1 (Homo sapiens, UniProt Q9H0H5); test: MgcRacGAP GTPase-activating activity inhibitors, confirmation, biochemical, ADP Hunter fluorescence, primary and confirmatory (AID 624330); type: functional
T2 sequence (Q9H0H5 whole entry): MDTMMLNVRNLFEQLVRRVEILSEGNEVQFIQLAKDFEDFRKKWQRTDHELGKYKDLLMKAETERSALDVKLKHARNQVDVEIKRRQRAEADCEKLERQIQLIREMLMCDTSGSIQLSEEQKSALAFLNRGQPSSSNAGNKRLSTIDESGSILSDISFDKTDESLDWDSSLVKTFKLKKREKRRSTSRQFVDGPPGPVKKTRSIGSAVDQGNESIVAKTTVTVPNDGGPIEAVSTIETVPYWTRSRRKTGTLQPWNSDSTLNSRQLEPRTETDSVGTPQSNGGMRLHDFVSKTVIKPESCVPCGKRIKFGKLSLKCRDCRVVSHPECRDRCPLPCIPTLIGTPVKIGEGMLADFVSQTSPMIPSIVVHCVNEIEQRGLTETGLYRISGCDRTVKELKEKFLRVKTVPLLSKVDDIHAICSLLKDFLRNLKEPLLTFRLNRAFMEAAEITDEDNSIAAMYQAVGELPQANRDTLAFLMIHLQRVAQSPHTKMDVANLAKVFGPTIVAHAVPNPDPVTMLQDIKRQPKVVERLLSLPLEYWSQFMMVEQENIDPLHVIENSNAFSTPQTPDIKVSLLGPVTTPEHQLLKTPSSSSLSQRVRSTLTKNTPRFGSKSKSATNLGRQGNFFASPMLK

[9] = target: Peroxisome proliferator-activated receptor gamma/Nuclear receptor coactivator 3 (Homo sapiens, UniProt P37231); type: functional;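 further: agonist potency for raising coactivator recruitment to the receptor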
Peroxisome proliferator-activated receptor gamma/Nuclear receptor coactivator 3, sequence (P37231 whole entry): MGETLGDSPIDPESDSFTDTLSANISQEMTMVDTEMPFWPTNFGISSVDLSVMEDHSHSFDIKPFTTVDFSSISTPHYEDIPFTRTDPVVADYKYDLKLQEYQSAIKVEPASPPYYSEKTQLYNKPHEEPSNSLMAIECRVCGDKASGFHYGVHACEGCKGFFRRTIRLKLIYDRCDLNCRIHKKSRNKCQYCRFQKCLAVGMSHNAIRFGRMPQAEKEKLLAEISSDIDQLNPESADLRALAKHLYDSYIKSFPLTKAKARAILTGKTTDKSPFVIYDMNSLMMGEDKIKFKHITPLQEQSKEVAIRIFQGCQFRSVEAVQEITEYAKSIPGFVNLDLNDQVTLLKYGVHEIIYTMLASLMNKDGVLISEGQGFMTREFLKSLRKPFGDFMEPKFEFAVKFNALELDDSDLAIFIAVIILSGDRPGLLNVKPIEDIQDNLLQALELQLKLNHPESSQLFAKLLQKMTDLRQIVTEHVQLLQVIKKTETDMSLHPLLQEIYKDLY
Peroxisome proliferator-activated receptor gamma/Nuclear receptor coactivator 3, sequence (Q9Y6Q9 whole entry, further chain): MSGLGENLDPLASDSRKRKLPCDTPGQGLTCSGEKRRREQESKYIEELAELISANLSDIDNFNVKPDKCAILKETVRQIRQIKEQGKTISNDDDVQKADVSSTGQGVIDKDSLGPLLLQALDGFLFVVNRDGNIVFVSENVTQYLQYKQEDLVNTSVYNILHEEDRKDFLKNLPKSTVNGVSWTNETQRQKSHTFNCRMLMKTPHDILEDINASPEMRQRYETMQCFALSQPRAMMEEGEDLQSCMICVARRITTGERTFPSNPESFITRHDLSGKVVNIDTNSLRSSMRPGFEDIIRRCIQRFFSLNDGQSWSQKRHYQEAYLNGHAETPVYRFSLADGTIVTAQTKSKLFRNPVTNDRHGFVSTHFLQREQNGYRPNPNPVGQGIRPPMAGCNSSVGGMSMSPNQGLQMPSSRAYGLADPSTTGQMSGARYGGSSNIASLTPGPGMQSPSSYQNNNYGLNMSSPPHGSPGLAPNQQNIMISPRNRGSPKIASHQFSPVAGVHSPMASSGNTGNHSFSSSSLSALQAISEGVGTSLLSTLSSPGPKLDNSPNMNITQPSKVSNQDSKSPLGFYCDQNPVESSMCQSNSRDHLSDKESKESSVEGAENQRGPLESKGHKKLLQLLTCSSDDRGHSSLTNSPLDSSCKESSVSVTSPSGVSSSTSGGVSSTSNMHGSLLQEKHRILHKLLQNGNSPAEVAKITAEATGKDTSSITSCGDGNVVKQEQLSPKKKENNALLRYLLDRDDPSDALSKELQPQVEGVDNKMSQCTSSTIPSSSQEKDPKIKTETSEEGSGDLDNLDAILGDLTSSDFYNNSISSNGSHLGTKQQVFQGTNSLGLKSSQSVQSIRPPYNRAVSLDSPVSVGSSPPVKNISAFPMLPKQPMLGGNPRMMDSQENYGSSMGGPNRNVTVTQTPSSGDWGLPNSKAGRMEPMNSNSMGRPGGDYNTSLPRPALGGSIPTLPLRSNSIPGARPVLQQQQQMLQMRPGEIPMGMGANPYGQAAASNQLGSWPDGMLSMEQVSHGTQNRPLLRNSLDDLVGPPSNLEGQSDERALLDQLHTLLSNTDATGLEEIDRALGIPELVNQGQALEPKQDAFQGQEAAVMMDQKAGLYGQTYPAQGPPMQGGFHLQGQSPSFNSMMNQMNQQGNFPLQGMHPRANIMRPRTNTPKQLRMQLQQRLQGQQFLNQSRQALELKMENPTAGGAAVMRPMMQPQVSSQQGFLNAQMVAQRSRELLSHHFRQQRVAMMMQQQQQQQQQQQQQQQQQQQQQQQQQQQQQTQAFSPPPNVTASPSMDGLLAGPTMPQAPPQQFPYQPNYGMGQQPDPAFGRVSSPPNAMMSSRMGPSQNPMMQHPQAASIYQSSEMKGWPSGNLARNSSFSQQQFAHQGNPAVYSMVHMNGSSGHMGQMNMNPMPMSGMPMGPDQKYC

[10] = target: Peroxisome proliferator-activated receptor gamma/Nuclear receptor coactivator 1 (Homo sapiens, UniProt P37231); type: functional;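 further: agonist potency as compounds enhance coactivator SRC-1 recruitment to PPARgamma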
Peroxisome proliferator-activated receptor gamma/Nuclear receptor coactivator 1, sequence (P37231 whole entry): as the sequence (P37231 whole entry) above
Peroxisome proliferator-activated receptor gamma/Nuclear receptor coactivator 1, sequence (Q15788 whole entry, further chain): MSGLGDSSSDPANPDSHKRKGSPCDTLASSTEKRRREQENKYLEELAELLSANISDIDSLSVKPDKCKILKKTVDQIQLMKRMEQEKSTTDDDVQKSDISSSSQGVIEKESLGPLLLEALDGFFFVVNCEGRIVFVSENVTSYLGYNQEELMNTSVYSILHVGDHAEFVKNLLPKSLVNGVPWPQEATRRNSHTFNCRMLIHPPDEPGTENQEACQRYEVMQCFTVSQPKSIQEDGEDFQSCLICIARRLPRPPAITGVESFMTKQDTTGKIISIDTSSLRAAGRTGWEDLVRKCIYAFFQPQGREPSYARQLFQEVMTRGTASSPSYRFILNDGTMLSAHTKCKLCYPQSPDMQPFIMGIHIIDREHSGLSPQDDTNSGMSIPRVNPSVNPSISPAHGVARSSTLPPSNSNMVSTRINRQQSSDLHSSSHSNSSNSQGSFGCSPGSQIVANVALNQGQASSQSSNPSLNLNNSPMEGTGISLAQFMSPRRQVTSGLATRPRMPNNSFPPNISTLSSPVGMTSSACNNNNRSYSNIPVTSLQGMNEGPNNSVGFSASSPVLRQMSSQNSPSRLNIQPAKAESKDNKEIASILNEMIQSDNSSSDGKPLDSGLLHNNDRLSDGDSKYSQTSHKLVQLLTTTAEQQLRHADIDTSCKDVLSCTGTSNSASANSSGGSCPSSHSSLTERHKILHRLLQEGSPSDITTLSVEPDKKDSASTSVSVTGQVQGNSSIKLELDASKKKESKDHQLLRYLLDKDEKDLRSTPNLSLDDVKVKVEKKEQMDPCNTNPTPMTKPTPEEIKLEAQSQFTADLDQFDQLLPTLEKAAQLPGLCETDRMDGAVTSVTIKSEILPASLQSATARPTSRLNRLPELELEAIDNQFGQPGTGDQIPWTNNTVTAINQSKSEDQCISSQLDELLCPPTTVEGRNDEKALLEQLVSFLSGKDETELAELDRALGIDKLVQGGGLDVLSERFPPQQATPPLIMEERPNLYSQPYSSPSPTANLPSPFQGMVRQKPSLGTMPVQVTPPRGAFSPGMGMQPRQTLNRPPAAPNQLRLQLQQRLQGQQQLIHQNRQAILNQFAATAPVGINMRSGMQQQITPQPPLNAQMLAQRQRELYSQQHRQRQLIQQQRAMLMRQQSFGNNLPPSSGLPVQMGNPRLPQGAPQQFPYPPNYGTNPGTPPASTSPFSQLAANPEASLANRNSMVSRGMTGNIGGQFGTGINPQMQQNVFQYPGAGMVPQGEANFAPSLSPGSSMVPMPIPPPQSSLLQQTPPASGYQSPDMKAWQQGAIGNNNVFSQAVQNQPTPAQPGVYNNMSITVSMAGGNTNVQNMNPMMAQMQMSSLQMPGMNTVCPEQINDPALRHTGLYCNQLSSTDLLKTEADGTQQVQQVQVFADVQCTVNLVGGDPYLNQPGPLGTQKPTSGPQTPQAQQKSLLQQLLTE

[11] = target: Peroxisome proliferator-activated receptor gamma/Nuclear receptor coactivator 2 (Homo sapiens, UniProt P37231); type: functional;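 further: agonist potency for raising coactivator recruitment to the receptor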
[12] = NIH:OVCAR-3 ovarian cancer cell cytotoxicity, dose response, PAX8 inhibitor project, plate reader, dry powder samples (AID 743044); type: functional, cell-based
[13] = IGROV1 ovarian cancer cell cytotoxicity, dose response, PAX8 inhibitor project, plate reader, dry powder samples (AID 743043); type: functional, cell-based; conditions: IGROV-1
[14] = cytotoxicity in OVCAR8 ovarian cancer cells, dose response, PAX8 project, cell-based, plate reader, dry powder samples (AID 743197); type: functional; conditions: OVCAR-8
[15] = A2780 ovarian cancer cell cytotoxicity, dose response, cytotoxicity control, plate reader, dry powder samples (AID 743046); type: functional, cell-based
[16] = IOSE-T80 ovarian epithelial cell cytotoxicity, dose response, cytotoxicity control for PAX8 inhibitor project, plate reader, dry powder samples (AID 743045); type: functional, cell-based
Paired box protein Pax-8 = Paired box protein Pax-8 (Homo sapiens, UniProt Q06710); test: inhibitors of PAX8-driven TPO luciferase reporter, dose response, RMG-I cells, cherry-pick (AID 687027); type: functional, cell-based;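 further: luciferase reporter driven by Pax8 target thyroperoxidase promoter measured by SteadyGlo luminescence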
Paired box protein Pax-8, sequence (Q06710 whole entry): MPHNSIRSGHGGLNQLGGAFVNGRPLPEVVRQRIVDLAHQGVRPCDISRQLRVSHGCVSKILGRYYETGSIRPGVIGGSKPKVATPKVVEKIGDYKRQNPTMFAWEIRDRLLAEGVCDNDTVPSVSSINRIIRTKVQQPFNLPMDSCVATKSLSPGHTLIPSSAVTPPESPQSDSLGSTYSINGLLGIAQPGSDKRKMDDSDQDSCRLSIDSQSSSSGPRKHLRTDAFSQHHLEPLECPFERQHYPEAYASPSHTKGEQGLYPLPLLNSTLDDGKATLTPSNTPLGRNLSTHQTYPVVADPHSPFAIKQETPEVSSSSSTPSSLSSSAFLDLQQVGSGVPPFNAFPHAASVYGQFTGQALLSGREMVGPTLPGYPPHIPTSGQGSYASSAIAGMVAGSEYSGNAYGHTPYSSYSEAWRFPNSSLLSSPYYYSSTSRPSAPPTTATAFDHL

[17] = Dose-response inhibition of insulin secretion in a rat insulinoma line at 5 mM glucose (AID 1117331); type: functional, cell-based; conditions: INS-1E
[18] = target: T3, Aryl hydrocarbon receptor (Homo sapiens, UniProt P35869); test: Luminescence-based cell-based high throughput dose response assay for activators of the Aryl Hydrocarbon Receptor (AHR). [Related pubchem assays: 2796 (Primary screen (AHR activators in singlicate)), 2845 (Confirmation screen (AHR activators in triplicate)), 434939 (Counterscreen (PXR activators in triplicate)), 2804 (Summary (AHR activators))]; type: ADME
T3 sequence (P35869 whole entry): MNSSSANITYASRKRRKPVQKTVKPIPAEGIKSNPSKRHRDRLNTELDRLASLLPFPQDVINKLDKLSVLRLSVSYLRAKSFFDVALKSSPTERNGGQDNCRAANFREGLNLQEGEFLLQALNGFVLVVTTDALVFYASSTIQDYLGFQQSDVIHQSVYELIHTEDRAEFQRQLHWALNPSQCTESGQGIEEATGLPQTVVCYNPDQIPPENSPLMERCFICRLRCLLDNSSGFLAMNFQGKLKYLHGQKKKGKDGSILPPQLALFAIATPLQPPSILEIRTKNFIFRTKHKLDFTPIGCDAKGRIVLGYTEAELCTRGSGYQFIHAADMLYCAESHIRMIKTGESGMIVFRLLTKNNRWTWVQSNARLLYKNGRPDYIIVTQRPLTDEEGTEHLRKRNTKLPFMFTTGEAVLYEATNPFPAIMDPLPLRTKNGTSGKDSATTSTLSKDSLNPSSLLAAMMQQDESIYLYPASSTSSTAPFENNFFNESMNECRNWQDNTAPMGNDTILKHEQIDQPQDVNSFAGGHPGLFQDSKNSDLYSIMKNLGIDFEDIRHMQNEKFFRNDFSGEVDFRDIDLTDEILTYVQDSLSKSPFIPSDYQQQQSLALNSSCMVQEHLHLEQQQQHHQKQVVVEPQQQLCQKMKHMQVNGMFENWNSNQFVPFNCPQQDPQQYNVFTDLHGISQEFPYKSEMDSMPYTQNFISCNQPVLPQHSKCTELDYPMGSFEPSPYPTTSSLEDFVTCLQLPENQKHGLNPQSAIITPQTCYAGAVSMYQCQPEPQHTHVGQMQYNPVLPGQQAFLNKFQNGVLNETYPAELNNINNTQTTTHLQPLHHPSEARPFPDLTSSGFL

[19] = P. falciparum Dd2 growth inhibitors, dose response, SYBR Green, dry powder samples (AID 1159566); type: functional, cell-based;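 further: potency for growth inhibition with lower SYBR green DNA signal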
[20] = HepG2 cell cytotoxicity, dose response, cytotoxicity control, plate reader, dry powder samples (AID 1159569); type: functional, cell-based;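 further: inhibitor potency with signal falling toward the positive control level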
[21] = P. falciparum 3D7-ScDHODH growth inhibitors, dose response, SYBR Green, dry powder samples (AID 1159570); type: functional, cell-based;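 further: parasite growth measured after 72 hours of compound exposure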
[22] = P. falciparum ATP4 D1247Y mutant growth inhibitors, dose response, NITD609-resistant line, SYBR Green, dry powder (AID 1159571); type: functional, cell-based;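 further: parasites synchronized at ring stage by sorbitol before testing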
[23] = P. falciparum Dd2 growth inhibitors, dose response, SYBR Green, cherry-picked samples (AID 1159567); type: functional, cell-based
[24] = HepG2 cell cytotoxicity, dose response, cytotoxicity control, cherry-picked samples (AID 1159577); type: functional, cell-based

CC(C)(C)CC(=O)Nc1nnc(-c2cccs2)s1
EC50 [1]: 0.231 µM (active)
EC50 [2]: 0.335 µM (active)
EC50 [3]: < 0.1 µM (active)
EC50 [4]: < 0.1 µM (active)
EC50 [5]: 0.408 µM (active)

CCOC(=O)c1sc2nc(-c3ccccc3)ccc2c1N
EC50 (cells): > 67.5 µM (inactive)
EC50 [6]: > 67.5 µM (inactive)

CC(C)c1ccc(NC(=O)COc2ccc(C3SCCS3)cc2)cc1
IC50 [7]: > 100 µM (active)

O=C1c2ccccc2C(=O)C1c1ccc(O)cc1
IC50 [8]: 172 µM (active)
EC50 [9]: > 79.4 µM (not active)
EC50 [10]: > 79.4 µM (not active)
EC50 [11]: > 79.4 µM (not active)

C/C(=N\c1ccc(C)cc1)c1sc2ccccc2c1O
EC50 (cells): > 67.5 µM (inactive)
EC50 [6]: > 67.5 µM (inactive)

C[C@H](CO)N1C[C@H](C)[C@@H](CN(C)Cc2ccccc2)OCCCC[C@H](C)Oc2ccc(NC(=O)Nc3ccc(C(F)(F)F)cc3)cc2C1=O
AC50 [12]: 16.7 µM (active)
AC50 [13]: 22.4 µM (active)
AC50 [14]: 25.2 µM (active)
AC50 [15]: 36.2 µM (active)
AC50 [16]: 39.8 µM (active)
AC50 (Paired box protein Pax-8): 13.5 µM (active)

CCO[C@H](Cc1ccc(OCCc2ccc(OS(C)(=O)=O)cc2)cc1)C(=O)O
IC50 [17]: > 33.3 µM (inactive)

Cc1cc(O)nc(N/N=C/c2ccc(Br)s2)n1
EC50 [18]: 8.5 µM (active)

OC[C@H]1[C@@H](c2ccc(-c3ccc(F)cc3)cc2)[C@@H]2CN(CCC(F)(F)F)CCCCN12
AC50 [19]: 0.518 µM (active)
AC50 [20]: 17 µM (active)
AC50 [21]: 1.21 µM (active)
AC50 [22]: 1.1 µM (active)
AC50 [23]: 0.726 µM (active)
AC50 [24]: 20.5 µM (active)

N#Cc1ccc(-c2ccc([C@@H]3[C@@H]4CN(C(=O)C5CCCCC5)C[C@H]3N4)cc2)cc1
AC50 [19]: 1.34 µM (active)
AC50 [20]: 23.8 µM (active)
AC50 [21]: 2.4 µM (active)
AC50 [22]: 2.85 µM (active)
AC50 [23]: 2.79 µM (active)
